Laboratory results taken from ChEMBL document CHEMBL5532702, “Coumarin-furo[2,3-d]pyrimidone hybrid molecules targeting human liver cancer cells: synthesis, anticancer effect, EGFR inhibition and molecular docking studies” (RSC Med Chem, 2024).
Activity calls are given as the source filed them. The calls are words filed in the database; no cut-off is given here.

How the values were obtained:
[1] = test system: HepG2; test: Cytotoxicity against human HepG2 cells assessed as reduction in cell viability incubated for 48 hrs by CCK-8 assay; settings: HepG2, 48 h
[2] = test system: HepG2; test: Inhibition of cell migration in human HepG2 cells at 5.42 to 27.10 micromol/L incubated for 24 hrs by crystal violet staining based microscopic analysis; type: functional; settings: dose 5.42-27.1 µmol/L
[3] = test system: HepG2; test: Inhibition of cell invasion in human HepG2 cells at 5.42 to 27.10 micromol/L incubated for 24 hrs by crystal violet staining based microscopic analysis; type: functional; settings: dose 5.42-27.1 µmol/L

CCN(CC)c1nc2oc(C)c(C(=O)NN)c2c(=O)n1-c1ccc(C)cc1
IC50 [1]: 17.2 µM | inhibition [2]: Active | inhibition [3]: Active

Cc1oc2nc(N3CCOCC3)n(-c3ccccc3)c(=O)c2c1C(=O)NNC(=O)c1cc2ccccc2oc1=O
IC50 [1]: 24.2 µM

CCCCNc1nc2oc(C)c(C(=O)NNC(=O)c3cc4ccccc4oc3=O)c2c(=O)n1-c1cccc(C)c1
IC50 [1]: 13 µM

CCCN(CCC)c1nc2oc(C)c(C(=O)NN)c2c(=O)n1-c1ccccc1
IC50 [1]: 17 µM

CCCNc1nc2oc(C)c(C(=O)NNC(=O)c3cc4ccccc4oc3=O)c2c(=O)n1-c1ccccc1
IC50 [1]: 7.72 µM

Cc1cccc(-n2c(N3CCOCC3)nc3oc(C)c(C(=O)NN)c3c2=O)c1
IC50 [1]: 40.8 µM

Cc1ccc(-n2c(N3CCOCC3)nc3oc(C)c(C(=O)NNC(=O)c4cc5ccccc5oc4=O)c3c2=O)cc1
IC50 [1]: 40 µM

Cc1oc2nc(N3CCOCC3)n(-c3ccccc3)c(=O)c2c1C(=O)NN
IC50 [1]: 45.1 µM

CCCN(CCC)c1nc2oc(C)c(C(=O)NNC(=O)c3cc4ccccc4oc3=O)c2c(=O)n1-c1ccc(C)cc1
IC50 [1]: 22.2 µM

CCN(CC)c1nc2oc(C)c(C(=O)NN)c2c(=O)n1-c1cccc(C)c1
IC50 [1]: 36.5 µM

CCCN(CCC)c1nc2oc(C)c(C(=O)NNC(=O)c3cc4ccccc4oc3=O)c2c(=O)n1-c1ccccc1
IC50 [1]: 14.3 µM

CCCCNc1nc2oc(C)c(C(=O)NNC(=O)c3cc4ccccc4oc3=O)c2c(=O)n1-c1ccc(C)cc1
IC50 [1]: 14.5 µM

Cc1ccc(-n2c(N3CCOCC3)nc3oc(C)c(C(=O)NN)c3c2=O)cc1
IC50 [1]: 55.9 µM

CCCNc1nc2oc(C)c(C(=O)NNC(=O)c3cc4ccccc4oc3=O)c2c(=O)n1-c1ccc(C)cc1
IC50 [1]: 21.8 µM

CCN(CC)c1nc2oc(C)c(C(=O)NNC(=O)c3cc4ccccc4oc3=O)c2c(=O)n1-c1cccc(C)c1
IC50 [1]: 26.5 µM

CCCNc1nc2oc(C)c(C(=O)NN)c2c(=O)n1-c1ccccc1
IC50 [1]: 69.3 µM

CCCCNc1nc2oc(C)c(C(=O)NN)c2c(=O)n1-c1ccccc1
IC50 [1]: > 100 µM

CCCN(CCC)c1nc2oc(C)c(C(=O)NN)c2c(=O)n1-c1ccc(C)cc1
IC50 [1]: 8.53 µM

CCN(CC)c1nc2oc(C)c(C(=O)NNC(=O)c3cc4ccccc4oc3=O)c2c(=O)n1-c1ccc(C)cc1
IC50 [1]: > 100 µM

Cc1cccc(-n2c(N3CCOCC3)nc3oc(C)c(C(=O)NNC(=O)c4cc5ccccc5oc4=O)c3c2=O)c1
IC50 [1]: 26.8 µM

CCCCNc1nc2oc(C)c(C(=O)NNC(=O)c3cc4ccccc4oc3=O)c2c(=O)n1-c1ccccc1
IC50 [1]: 8.74 µM

CCN(CC)c1nc2oc(C)c(C(=O)NN)c2c(=O)n1-c1ccccc1
IC50 [1]: 30.7 µM

CCN(CC)c1nc2oc(C)c(C(=O)NNC(=O)c3cc4ccccc4oc3=O)c2c(=O)n1-c1ccccc1
IC50 [1]: 7.89 µM

CCCNc1nc2oc(C)c(C(=O)NN)c2c(=O)n1-c1cccc(C)c1
IC50 [1]: 58.9 µM

CCCCNc1nc2oc(C)c(C(=O)NN)c2c(=O)n1-c1ccc(C)cc1
IC50 [1]: > 100 µM

CNC(=O)c1cc(Oc2ccc(NC(=O)Nc3ccc(Cl)c(C(F)(F)F)c3)cc2)ccn1 [SORAFENIB]
IC50 [1]: 12.3 µM

CCCNc1nc2oc(C)c(C(=O)NN)c2c(=O)n1-c1ccc(C)cc1
IC50 [1]: 84.1 µM

CCCCNc1nc2oc(C)c(C(=O)NN)c2c(=O)n1-c1cccc(C)c1
IC50 [1]: 73.9 µM

CCCNc1nc2oc(C)c(C(=O)NNC(=O)c3cc4ccccc4oc3=O)c2c(=O)n1-c1cccc(C)c1
IC50 [1]: 24.3 µM
